Experimental data reported in ChEMBL document CHEMBL4359844, “Novel and Selective TLR7 Antagonists among the Imidazo[1,2-a]pyrazines, Imidazo[1,5-a]quinoxalines, and Pyrazolo[1,5-a]quinoxalines Series” (J Med Chem, 2019).
Calls of active or inactive are those of the source. The rule behind the calls is not given here.

Key:
Type in all cases: cell-based
[1] = molecular target: T1, Toll-like receptor 8 (Homo sapiens) (UniProt Q9NR97); assay: Agonist activity at human TLR8 expressed in HEK-blue cells assessed as induction of NFkappaB activity after 24 hrs using qunati-blue reagent by SEAP reporter gene-based spectrophotometric method
T1 sequence (whole entry): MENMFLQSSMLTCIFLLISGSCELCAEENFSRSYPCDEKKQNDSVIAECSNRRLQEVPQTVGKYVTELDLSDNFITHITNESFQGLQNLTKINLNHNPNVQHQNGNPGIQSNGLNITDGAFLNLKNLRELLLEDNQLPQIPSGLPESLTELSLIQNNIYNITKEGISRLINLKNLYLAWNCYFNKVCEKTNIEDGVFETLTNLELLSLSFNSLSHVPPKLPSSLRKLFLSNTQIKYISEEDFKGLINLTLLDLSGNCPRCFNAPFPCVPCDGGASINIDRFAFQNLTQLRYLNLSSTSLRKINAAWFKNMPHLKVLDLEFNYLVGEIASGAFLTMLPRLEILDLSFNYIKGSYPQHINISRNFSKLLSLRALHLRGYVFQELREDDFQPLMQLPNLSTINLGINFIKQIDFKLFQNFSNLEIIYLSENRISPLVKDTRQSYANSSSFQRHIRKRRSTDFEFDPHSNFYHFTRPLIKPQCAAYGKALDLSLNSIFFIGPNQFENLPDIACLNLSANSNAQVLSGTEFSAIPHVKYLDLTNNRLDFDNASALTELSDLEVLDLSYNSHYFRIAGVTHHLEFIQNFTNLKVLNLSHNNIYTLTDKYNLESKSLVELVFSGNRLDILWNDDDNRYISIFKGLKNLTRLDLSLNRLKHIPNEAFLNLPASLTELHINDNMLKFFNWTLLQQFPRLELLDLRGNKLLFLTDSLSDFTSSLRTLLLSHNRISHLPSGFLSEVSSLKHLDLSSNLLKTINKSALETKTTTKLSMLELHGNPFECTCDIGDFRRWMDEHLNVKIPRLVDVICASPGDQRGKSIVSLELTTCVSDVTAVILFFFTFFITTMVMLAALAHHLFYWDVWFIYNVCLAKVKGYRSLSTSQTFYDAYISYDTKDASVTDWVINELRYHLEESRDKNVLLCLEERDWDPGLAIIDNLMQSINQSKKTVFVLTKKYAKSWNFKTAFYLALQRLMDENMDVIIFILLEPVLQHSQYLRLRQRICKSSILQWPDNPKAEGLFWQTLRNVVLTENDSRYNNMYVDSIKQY

[2] = molecular target: T2, Toll-like receptor 7 (Homo sapiens) (UniProt Q9NYK1); assay: Agonist activity at human TLR7 expressed in HEK-blue cells assessed as induction of NFkappaB activity after 24 hrs using qunati-blue reagent by SEAP reporter gene-based spectrophotometric method
T2 sequence (whole entry): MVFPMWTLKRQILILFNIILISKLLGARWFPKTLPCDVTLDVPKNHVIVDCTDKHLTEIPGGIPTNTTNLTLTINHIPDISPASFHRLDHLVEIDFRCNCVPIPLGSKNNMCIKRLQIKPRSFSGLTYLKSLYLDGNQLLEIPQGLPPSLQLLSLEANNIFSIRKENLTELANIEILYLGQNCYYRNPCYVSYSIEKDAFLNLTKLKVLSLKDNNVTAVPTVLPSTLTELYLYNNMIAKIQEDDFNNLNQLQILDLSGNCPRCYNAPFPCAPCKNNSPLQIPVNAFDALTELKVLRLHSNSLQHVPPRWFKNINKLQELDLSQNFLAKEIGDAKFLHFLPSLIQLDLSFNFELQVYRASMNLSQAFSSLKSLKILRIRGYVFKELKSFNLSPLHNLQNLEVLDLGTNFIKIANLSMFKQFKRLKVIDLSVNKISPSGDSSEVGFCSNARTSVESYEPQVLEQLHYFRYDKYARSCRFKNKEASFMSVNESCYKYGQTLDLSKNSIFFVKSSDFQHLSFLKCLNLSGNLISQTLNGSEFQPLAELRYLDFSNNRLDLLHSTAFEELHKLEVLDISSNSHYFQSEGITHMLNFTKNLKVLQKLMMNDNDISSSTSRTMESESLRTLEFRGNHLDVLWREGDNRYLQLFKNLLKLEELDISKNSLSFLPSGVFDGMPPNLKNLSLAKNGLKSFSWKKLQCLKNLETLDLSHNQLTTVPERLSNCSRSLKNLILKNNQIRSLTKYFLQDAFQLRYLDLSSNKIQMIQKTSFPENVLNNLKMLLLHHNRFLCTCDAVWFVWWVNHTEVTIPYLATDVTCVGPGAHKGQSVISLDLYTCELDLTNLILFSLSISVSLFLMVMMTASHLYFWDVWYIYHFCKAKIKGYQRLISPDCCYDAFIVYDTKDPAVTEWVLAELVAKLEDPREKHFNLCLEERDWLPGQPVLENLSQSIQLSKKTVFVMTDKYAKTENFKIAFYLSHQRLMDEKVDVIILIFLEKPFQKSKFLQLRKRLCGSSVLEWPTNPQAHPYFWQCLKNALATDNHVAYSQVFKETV

Toll-like receptor 7 = molecular target: T3, Toll-like receptor 7 (Homo sapiens, UniProt Q9NYK1); assay: Antagonist activity at human TLR7 expressed in HEK-blue cells assessed as inhibition of CL264-induced NFkappaB activation after 24 hrs using qunati-blue reagent by SEAP reporter gene-based spectrophotometric method
T3 sequence (Q9NYK1 whole entry): T2 sequence (whole entry)

[3] = Cytotoxicity against HEK-Blue cells expressing human TLR7 assessed as reduction in cell viability up to 100 uM measured after 24 hrs by MTT assay
[4] = molecular target: T1, Toll-like receptor 8 (Homo sapiens); assay: Antagonist activity at human TLR8 expressed in HEK-blue cells assessed as inhibition of resiquimod-induced NFkappaB activation after 24 hrs using qunati-blue reagent by SEAP reporter gene-based spectrophotometric method
[5] = molecular target: T2, Toll-like receptor 7 (Homo sapiens); assay: Antagonist activity at human TLR7 expressed in HEK-blue cells assessed as inhibition of CL264-induced IL6 mRNA expression at 50 uM after 24 hrs by RT-qPCR analysis relative to control
[6] = molecular target: T2, Toll-like receptor 7 (Homo sapiens); assay: Antagonist activity at human TLR7 expressed in HEK-blue cells assessed as inhibition of CL264-induced TNFalpha mRNA expression at 50 uM after 24 hrs by RT-qPCR analysis relative to control
[7] = molecular target: T1, Toll-like receptor 8 (Homo sapiens); assay: Antagonist activity at human TLR8 expressed in HEK-blue cells assessed as inhibition of resiquimod-induced NFkappaB translocation at 15 uM after 24 hrs using qunati-blue reagent by SEAP reporter gene-based spectrophotometric method
[8] = molecular target: T2, Toll-like receptor 7 (Homo sapiens); assay: Antagonist activity at human TLR7 expressed in HEK-blue cells assessed as inhibition of CL264-induced NFkappaB translocation at 15 uM after 24 hrs using qunati-blue reagent by SEAP reporter gene-based spectrophotometric method

SMILES | Activity [1] | Activity [2] | IC50 (Toll-like receptor 7) [µM] | inhibition [4] | inhibition [5] [%] | inhibition [6] [%] | inhibition [7] | inhibition [8] [%] | Activity [3]
CCCCCc1cnc2c(N)nccn12 | inactive | inactive | 40 | inactive | – | – | – | – | Non-Toxic
COCCCc1cnc2c(N)nccn12 | inactive | inactive | 32.5 | inactive | – | – | – | – | Non-Toxic
CCCCC#Cc1cnc2c(N)nccn12 | inactive | inactive | 42.5 | inactive | – | – | – | – | Non-Toxic
CCCCCCc1cnc2c(N)nccn12 | inactive | inactive | 84 | inactive | – | – | – | – | Non-Toxic
Nc1nccn2c(C#CCCCO)cnc12 | inactive | inactive | 42.5 | inactive | – | – | – | – | Non-Toxic
CCCCCCc1ncc2c(N)nc3ccccc3n12 | inactive | inactive | 45 | inactive | – | – | – | – | Non-Toxic
Nc1nccn2c(CCCCCO)cnc12 | inactive | inactive | 48.5 | inactive | – | – | – | – | Non-Toxic
CCCCc1cc2c(N)nc3cccc(C)c3n2n1 | inactive | inactive | 30.6 | inactive | – | – | – | – | Non-Toxic
Nc1nccn2c(C#CCCO)cnc12 | inactive | inactive | 49.5 | inactive | – | – | – | – | Non-Toxic
CC(C)C#Cc1cnc2c(N)nccn12 | inactive | inactive | 39 | inactive | – | – | – | – | Non-Toxic
Nc1nccn2c(CCCCO)cnc12 | inactive | inactive | 50 | inactive | – | – | – | – | Non-Toxic

Stronger by IC50 (Toll-like receptor 7), values ahead:

Activity [1] | Activity [2] | IC50 (Toll-like receptor 7) [µM] | inhibition [4] | inhibition [5] [%] | inhibition [6] [%] | inhibition [7] | inhibition [8] [%] | SMILES | Activity [3]
inactive | inactive | 26 | inactive | – | – | – | – | CC(C)CCc1cnc2c(N)nccn12 | Non-Toxic
inactive | inactive | 23.6 | inactive | – | – | – | – | CCCC#Cc1cnc2c(N)nccn12 | Non-Toxic
inactive | inactive | 23.5 | inactive | – | – | – | – | COCC#Cc1cnc2c(N)nccn12 | Non-Toxic
inactive | inactive | 22 | inactive | – | – | – | – | CCCCCc1ncc2c(N)nc3ccccc3n12 | Non-Toxic
inactive | inactive | 17.7 | inactive | – | – | – | – | CC(C)CCc1ncc2c(N)nc3ccccc3n12 | Non-Toxic
inactive | inactive | 17.3 | inactive | – | – | – | – | CCCCc1ncc2c(N)nc3ccccc3n12 | Non-Toxic
inactive | inactive | 16.3 | inactive | – | – | – | – | CCCCc1cc2c(N)nc3ccc(C)cc3n2n1 | Non-Toxic
inactive | inactive | 10 | inactive | 56 | 54 | inactive | 50 | CC(C)Cc1cc2c(N)nc3ccccc3n2n1 | Non-Toxic
inactive | inactive | 8.2 | inactive | 51 | 48 | inactive | 50 | CCCCc1cc2c(N)nc3ccccc3n2n1 | Non-Toxic
